Test systems include DMS 273 small cell lung; XF 498 CNS; DLD-1 colon; M19-MEL melanoma; LXFL 529 NSCLC; MDA-N; HOP-18 NSCLC; BT-549 breast.
Assay in all cases: NCI tumour cell line growth inhibition, 48 h

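Five concentrations, 48 hours, 96-well plates. The concentration for 50% growth inhibition is given as GI50. TGI: total growth inhibition.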

In the case of `COc1cc(CC(C(=O)O)C(=O)O)c(OC)cc1CC(C(=O)O)C(=O)O`, the TGI with DMS 273 small cell lung, with XF 498 CNS, in the test with DLD-1 colon, with M19-MEL melanoma and in the test with LXFL 529 NSCLC was > 100 µM in each case.

Regarding `CCN(CC)CC(C)(C)C(=O)/C=C/c1ccc(/C=C/C(=O)C(C)(C)CN(CC)CC)cc1`, the TGI with XF 498 CNS turned out to be 1.03 µM; in the test on DLD-1 colon it was 1.26 µM; in the test with MDA-N it was 1.66 µM; with M19-MEL melanoma it was 4.23 µM; with LXFL 529 NSCLC it was 0.417 µM.

As for `O=C(O)CCSC(=S)Nc1cccc(F)c1`, the TGI with DMS 273 small cell lung was > 100 µM; with DLD-1 colon, > 100 µM; with HOP-18 NSCLC, > 100 µM; in the test on M19-MEL melanoma it was 88.8 µM; in the test with LXFL 529 NSCLC it was > 100 µM.

Take `O=C(Nc1nc(-c2ccc(Cl)cc2)nc2c1sc(=S)n2-c1ccccc1)C(F)(F)F`: in the test with BT-549 breast, the GI50 was 6.37 µM and the TGI was determined as 38.2 µM.

Consider `Nc1ccc2c(c1)Oc1c(F)c(F)cc3c(=O)c(C(=O)O)cn-2c13`, for which the TGI in the test on DLD-1 colon, with HOP-18 NSCLC, in the test with M19-MEL melanoma and in the test with LXFL 529 NSCLC was > 100 µM in each case.

Regarding `CCOC(=O)c1c2cccccc2n2c(=O)cc(C)nc12`, the TGI in the test with DMS 273 small cell lung and in the test with LXFL 529 NSCLC was > 100 µM each time.

As to `O=C(Nc1cccc(Cl)c1)c1cc(N=Nc2ccc([N+](=O)[O-])cc2Cl)ccc1O`, in the test on BT-549 breast, the GI50 was 2.35 µM and the TGI worked out at 7.31 µM.

As to `COc1ccc(/C=C2\CC(C)CC3C2=NN(c2ccccc2)C3c2ccc(OC)c(OC)c2)cc1OC` (configuration not stated), in the test with BT-549 breast, the GI50 is 4.58 µM and the TGI is 79.7 µM.

As to `C=C1C(=O)OC2CC3(C)CCCC(C)C3=CC12` (configuration not stated), the TGI was 11.4 µM in the test on MDA-N and 18.5 µM in the test on BT-549 breast.

`CC[C@]12C=CCN3CC[C@@]4(c5ccc(OC)cc5N(C)[C@H]4[C@@](O)(C(=O)OC)[C@@H]1OC(=O)CCC(=O)N[C@H](Cc1c[nH]c4ccccc14)C(=O)OC)[C@@H]32`: in the test on BT-549 breast, the GI50 is 7.68 µM and the TGI turned out to be 41 µM.

On to `Cc1cc(NNC(=O)c2ccccc2O)nc(Nc2nc3ccccc3o2)n1`, for which, in the test on BT-549 breast, the GI50 is 4.52 µM and the TGI was determined as 28.2 µM.

Take `O=C1[C@H](Cl)[C@H]2c3cc4ccccc4nc3Oc3ccccc3N12`: the TGI in the test with DMS 273 small cell lung, with DLD-1 colon, in the test with M19-MEL melanoma and with LXFL 529 NSCLC was > 100 µM throughout.

On to `C=C1CCC2C3(C)COC(c4ccc(Cl)cc4)OC3CCC2(C)C1/C=C/C1=CCOC1=O` (configuration not stated), for which, in the test on BT-549 breast, the GI50 is 4.79 µM and the TGI turned out to be 80.5 µM.

As to `CC1CCc2c(c(CC3CC(=O)NC(=O)C3)nn2-c2ccccc2)C1` (configuration not stated), the TGI in the test with MDA-N and in the test on BT-549 breast was > 100 µM throughout.

For `NNC(=S)Nc1cccc(Cl)c1`, the TGI in the test on MDA-N and in the test with BT-549 breast was > 100 µM each time.

On to `O=C(Cn1c(C(=O)c2ccccc2)nc2ccccc21)c1ccc(F)cc1`, for which, in the test with BT-549 breast, the GI50 is 9.76 µM and the TGI was > 100 µM.

Turning to `Cc1cc(C)nc(NS(=O)(=O)c2ccc(NC(=O)c3ccc(Cl)c4c(Nc5ccc(S(=O)(=O)N=C(N)N)cc5)c5ccccc5nc34)cc2)n1`, the TGI with DMS 273 small cell lung, in the test on XF 498 CNS, in the test with HOP-18 NSCLC and with LXFL 529 NSCLC was > 100 µM each time.

Consider `COc1ccc2c(c1)N(CCO)C1=C(C(=O)OC1)C2c1ccccc1` (configuration not stated), for which, in the test on BT-549 breast, the GI50 is 4.03 µM and the TGI is > 50 µM.

Take `CC1=C2[C@H](c3ccccc3)C3C=CC2(c2ccccc23)N(C(=O)C(c2ccccc2)c2ccccc2)C1=O` (some centres not stated): the TGI in the test with DMS 273 small cell lung, with XF 498 CNS, in the test on DLD-1 colon, with HOP-18 NSCLC, with M19-MEL melanoma and in the test with LXFL 529 NSCLC was > 100 µM throughout.

Take `CC1=NN(C(=O)c2ccncc2)C(=O)C1N=Nc1ccc2ccccc2c1` (configuration not stated): the results for the TGI with MDA-N and in the test with BT-549 breast were 10.2 µM and > 100 µM, respectively.

Regarding `CC(=O)NC(CCCCN(Cc1ccccc1)C(=O)N(CCCl)N=O)C(=O)NCc1ccccc1` (configuration not stated), the TGI was > 100 µM with DMS 273 small cell lung; > 49.8 µM in the test with XF 498 CNS; > 79 µM with DLD-1 colon; 87.5 µM with HOP-18 NSCLC; 36.3 µM in the test with MDA-N; 65.8 µM in the test on BT-549 breast. Also, the TGI in the test with M19-MEL melanoma and in the test on LXFL 529 NSCLC was > 100 µM each time.

In the case of `CC(=O)O[C@H]1C(=O)[C@@]2(C)[C@H]([C@H](OC(=O)c3ccccc3)[C@@]3(O)C[C@H](O)C(C)=C1C3(C)C)[C@]1(OC(C)=O)CO[C@@H]1C[C@@H]2O`, the TGI in the test on MDA-N is 17.1 µM; with BT-549 breast it was > 100 µM.

Take `COC(=O)C1=C(O)[C@H](C(=O)OC)[C@]2(O)[C@@H](C(=O)OC)[C@H]1C[C@@H](c1ccc(OC(=O)/C=C/c3ccco3)cc1)[C@@H]2C(=O)OC`: in the test on BT-549 breast, the GI50 was 22.5 µM and the TGI was found to be 49.4 µM.

In the case of `CCCCCCCCCCCCCC(=O)OCC1OC(n2cc(F)c(=O)[nH]c2=O)C(N)C(OC(=O)CCCCCCCCCCCCC)C1O` (configuration not stated), the TGI in the test on DMS 273 small cell lung, in the test on M19-MEL melanoma and in the test with LXFL 529 NSCLC was > 100 µM throughout.

As for `COc1cc(-c2ccc(NC(=O)NC3CC3)c(OC)c2)ccc1NC(=O)NC1CC1`, in the test with BT-549 breast, the GI50 is 2.67 µM and the TGI came out at 27.2 µM.

`COc1ccc(/C=c2/sc3n(c2=O)NC(c2ccc(Cl)cc2)NN=3)cc1` (configuration not stated): the TGI in the test with DMS 273 small cell lung, with XF 498 CNS, with DLD-1 colon, in the test with M19-MEL melanoma and in the test on LXFL 529 NSCLC was > 100 µM throughout.

Turning to `CCOC(=O)c1csc(NC(=O)COc2cccc(/C=C3\CSc4ccccc4C3=O)c2)n1`, in the test with BT-549 breast, the GI50 was 2.29 µM and the TGI is 6.22 µM.

`Cc1cn2c(/C=C3/C(=O)Nc4ccc(F)cc43)c(C)nc2s1`: in the test on BT-549 breast, the GI50 was 8.52 µM and the TGI is > 50 µM.

For `CCc1nc2cc(/C=C/C(=O)NO)ccc2c(=O)n1CCc1ccc(F)cc1`, in the test on BT-549 breast, the GI50 was 2.84 µM and the TGI was 9.14 µM.

For the origin of these results see PubChem BioAssay (NCI).
